Experimental data published in US11040028B2, “Penicinotam derivative, preparation method and use thereof” (OCEAN UNIVERSITY OF CHINA, priority 2017, dated 2021).

Legend:
Type in all cases: cell-based
[1] = test system: human hepatic stellate cells LX-2; experiment: Anti-fibrosis activity test: inhibition of proliferation of human hepatic stellate cells LX-2 (CCK-8); settings: Homo sapiens, 48 h, human hepatic stellate cells LX-2, CCK-8, 48 hours
In short: (§1)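 Using CCK-8 colorimetry (450 nm), the study assessed growth inhibition after 48 h compound exposure; plating density was 2×10^4 cells/mL with 24 h attachment beforehand. IC50 was calculated from (1−Ai/Ao)×100%.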

[2] = test system: human fibrosarcoma cells HT-1080; experiment: Anti-fibrosis activity test: inhibition of proliferation of human fibrosarcoma cells HT-1080 (CCK-8); settings: Homo sapiens, HT-1080, 48 h, human fibrosarcoma cells HT-1080, CCK-8, 48 hours
In short: as §1

[3] = test system: BHK-21 cells; experiment: Anti-fibrosis activity test: inhibition of BHK-21 cell proliferation (CCK-8); settings: Mesocricetus auratus, BHK-21, 48 h, CCK-8, 48 hours after administration
In short: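 Proliferation of BHK-21 cells is measured by CCK-8 at 450 nm following 48 h compound exposure at several concentrations. Inhibition is expressed relative to blank control and IC50 is computed from it.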

[4] = test system: NF-κB; experiment: Immunological activity test: inhibition of NF-κB activity; settings: initial concentration of 30 μM; a/b isomers given as first/second symbol; read-out: IC50 (μM), inhibitory activity against NF-κB
From the text: Main references for immunological activity test of the compounds of the present application includes: Vogl, S.; Atanasov, A. G.; Binder, M.; Bulusu, M.; Zehl, M.; Fakhrudin, N.; Heiss, E. H.; Picker, P.; Wawrosch, C.; Saukel, J.; Reznicek, G.; Urban, E.; Bochkov, V.; Dirsch, V. M.; Kopp, B. J. Evid-Based Complementary Alern. Med. 2013, ID 395316. Commercially available parthenolide was utilized as a positive control.
The ability of the compounds of the present application to inhibit NF-κB activity was tested at an initial concentration of 30 μM.
The assay data for the compounds of the present application were further analyzed to determine their IC50 values.

[5] = test system: human dermal fibroblasts CCC-ESF-1; experiment: Anti-fibrosis activity test: inhibition of proliferation of human dermal fibroblasts CCC-ESF-1 (CCK-8); settings: Fibroblast; human dermal fibroblasts CCC-ESF-1, CCK-8, 48 hours
In short: as §1

[6] = test system: human embryonic lung fibroblast IMR-90; experiment: Anti-fibrosis activity test: inhibition of proliferation of human embryonic lung fibroblast IMR-90 (CCK-8); settings: human embryonic lung fibroblast IMR-90, CCK-8, 48 hours
In short: as §1

[7] = test system: human lung fibroblasts HFL1; experiment: Anti-fibrosis activity test: inhibition of proliferation of human lung fibroblasts HFL1 (CCK-8); settings: Homo sapiens, HFL1, 48 h, human lung fibroblasts HFL1, CCK-8, 48 hours
In short: as §1

[8] = test system: cardiac fibroblast RAT-iCell-C002; experiment: Anti-fibrosis activity test: inhibition of proliferation of cardiac fibroblast RAT-iCell-C002 (CCK-8); settings: Cardiac fibroblast, 48 h, cardiac fibroblast RAT-iCell-C002, CCK-8, 48 hours
In short: as §1

Compound	IC50 [1] [mM]	IC50 [2] [mM]	IC50 [3] [mM]	IC50 [4] [µM]	IC50 [5] [mM]	IC50 [6] [mM]	IC50 [7] [mM]	IC50 [8] [mM]
O=C1c2c(n(-c3ccc(Br)cc3)c3ccccc3c2=O)-c2cccn21 [Compound 64a, 4-(4-Bromophenyl)-9H-pyrrolizino[1,2-b]quinoline-9,10(4H)-dione]	0.05 to 5	0.05 to 5	0.05 to 5	1 to 10	0.05 to 5	0.05 to 5	0.05 to 5	0.05 to 5
O=C1c2c(n(Cc3ccc(Cl)cc3)c3ccc(F)cc3c2=O)-c2cccn21 [Compound 618a, 4-(4-Chlorobenzyl)-7-fluoro-9H-pyrrolizino[1,2-b]quinoline-9,10(4H)-dione]	0.05 to 5	0.05 to 5	0.05 to 5	1 to 10	0.05 to 5	0.05 to 5	0.05 to 5	0.05 to 5
CC(C)n1c2c(c(=O)c3ccccc31)C(=O)n1cccc1-2 [Compound 5a, 4-Isopropyl-9H-pyrrolizino[1,2-b]quinoline-9,10(4H)-dione]	0.05 to 5	5 to 20	5 to 20	10 to 50	0.05 to 5	0.05 to 5	0.05 to 5	< 0.05
N#Cc1ccc(Cn2c3c(c(=O)c4cc(F)ccc42)C(=O)n2cccc2-3)cc1 [Compound 619a, 4-((7-Fluoro-9,10-dioxo-9H-pyrrolizino[1,2-b]quinolin-4(10H)-yl)methyl)benzonitrile]	0.05 to 5	0.05 to 5	0.05 to 5	1 to 10	< 0.05	0.05 to 5	0.05 to 5	0.05 to 5
O=C1c2c(nc3ccccc3c2Oc2ccc(Br)cc2)-c2cccn21 [Compound 64b, 9-(4-bromophenoxy)-10H-pyrrolizino[1,2-b]quinolin-10-one]	0.05 to 5	0.05 to 5	0.05 to 5	1 to 10	0.05 to 5	0.05 to 5	0.05 to 5	0.05 to 5
N#Cc1ccc(COc2c3c(nc4ccc(F)cc24)-c2cccn2C3=O)cc1 [Compound 619b, 4-(((7-fluoro-10-oxo-10H-pyrrolizino[1,2-b]quinolin-9-yl)oxy)methyl)benzonitrile]	0.05 to 5	0.05 to 5	0.05 to 5	1 to 10	< 0.05	0.05 to 5	0.05 to 5	0.05 to 5
O=C1c2c(n(Cc3ccc(Cl)cc3)c3cc(C(F)(F)F)ccc3c2=O)-c2cccn21 [Compound 544a, 4-(4-Chlorobenzyl)-6-(trifluoromethyl)-9H-pyrrolizino[1,2-b]quinoline-9,10(4H)-dione]	0.05 to 5	0.05 to 5	< 0.05	10 to 50	0.05 to 5	0.05 to 5	0.05 to 5	0.05 to 5
O=C1c2c(n(-c3ccc(F)cc3)c3ccccc3c2=O)-c2cccn21 [Compound 18a, 4-(4-Fluorophenyl)-9H-pyrrolizino[1,2-b]quinoline-9,10(4H)-dione]	5 to 20	0.05 to 5	< 0.05	0.1 to 1	0.05 to 5	0.05 to 5	0.05 to 5	0.05 to 5
N#Cc1ccc2c(c1)c(=O)c1c(n2Cc2ccc(F)cc2)-c2cccn2C1=O [Compound 624a, 4-(4-Fluorobenzyl)-9,10-dioxo-4,10-dihydro-9H-pyrrolizino[1,2-b]quinoline-7-carbonitrile]	5 to 20	0.05 to 5	< 0.05	0.1 to 1	0.05 to 5	0.05 to 5	< 0.05	0.05 to 5
O=C1c2c(n(Cc3cc(C(F)(F)F)cc(C(F)(F)F)c3)c3cc(N4CCNCC4)ccc3c2=O)-c2cccn21 [Compound 631a, 4-(3,5-Bis(trifluoromethyl)benzyl)-6-(piperazin-1-yl)-9H-pyrrolizino[1,2-b]quinoline-9,10(4H)-dione]	0.05 to 5	0.05 to 5	0.05 to 5	1 to 10	0.05 to 5	0.05 to 5	0.05 to 5	0.05 to 5
